For test [1], the system named is Enterococcus faecalis ATCC 14506. The class given is cell-based. The following applies: LB medium, 24 h, 30° C. How it is done:
(§1) All strains were cultured in LB medium (lysogenic broth).
(§2) The test compounds were dissolved in water. […] Data were obtained from three independent experiments.

Test [2] concerns Escherichia coli ST2-8624 O157:H7. The class given is cell-based. The following applies: LB medium, 24 h, 30° C. Here is the method:
as §1, §2

The subject of test [3] is Klebsiella pneumoniae PCM 1. The class given is cell-based. As to conditions: LB medium, 24 h, 30° C. Here is the method: as §1, §2
In test [4] the test system is Pseudomonas aeruginosa PAO1 PCM 499. The class given is cell-based. As to conditions: LB medium, 24 h, 30° C. Here is the method:
as §1, §2

The subject of test [5] is Salmonella sv. typhimurium TT622. The class given is cell-based. The following applies: 24 h. How it is done:
as §1, §2

For test [6], the system named is Staphylococcus aureus ATCC 29213. The class given is cell-based. As to conditions: LB medium, 24 h, 30° C. How it is done:
as §1, §2

Test [7] has as its system Staphylococcus epidermidis ATCC 12228. The class given is cell-based. The following applies: LB medium, 24 h, 30° C. How it is done:
as §1, §2

In test [8] the test system is Yersinia enterocolitica PCM 2081. The class given is cell-based. The following applies: LB medium, 24 h, 30° C. How it is done: as §1, §2
For test [9], the system named is Methicillin-resistant Staphylococcus aureus (MRSA) 401/5. As to conditions: MRSA strain (+) 401/5; LB medium, 24 h, 30° C. An excerpt:
(§3) All bacterial strains were obtained from the Polish Collection of Microorganisms (PCM) or American Type Culture Collection (ATCC). Gram-positive bacterial strains: Staphylococcus aureus ATCC 29213, Staphylococcus epidermidis ATCC 12228, Enterococcus faecalis ATCC 14506. Methicillin-resistant Staphylococcus aureus (MRSA) bacterial strains: Staphylococcus aureus 401/5, Staphylococcus aureus 4811/13, Staphylococcus aureus 5288/13. Gram-negative bacterial strains: Escherichia coli ST2-8624 O157:H7, Pseudomonas aeruginosa PAO1 PCM 499, Klebsiella pneumoniae PCM 1, Salmonella sv. typhimurium TT622, and Yersinia enterocolitica PCM 2081. All strains were cultured in LB medium (lysogenic broth).
(§4) 10 mL of LB medium was inoculated with the material from a single bacterial colony and cultured at 30° C. with shaking overnight. The optical density of overnight cultures (at 600 nm) was then brought to 0.05 by dilution with a fresh portion of LB medium. The test compounds were dissolved in water. Serial dilutions of the compounds were performed in LB medium ranging from 5 to 50 μg/mL (final concentrations). The experiment was carried out by adding 100 μL of each prepared dilution to 100 μL of diluted overnight bacterial culture in the wells of a 96-well titer plate. […] Optical density measurements were conducted using a TECAN Sunrise plate reader. Data were obtained from three independent experiments.

In test [10] the test system is Methicillin-resistant Staphylococcus aureus (MRSA) 4811/13. As to conditions: MRSA strain (+) 4811/13; LB medium, 24 h, 30° C.
Source text: as §3, §4

For test [11], the system named is Methicillin-resistant Staphylococcus aureus (MRSA) 5288/13. As to conditions: MRSA strain (+) 5288/13; LB medium, 24 h, 30° C.
Source text: as §3, §4

For test [12], the system named is strains of methicillin-resistant Staphylococcus aureus (MRSA). Put plainly: Activity against MRSA strains (summary of the MIC results). The following applies: in words, from the MIC values of Table 1. The class given is cell-based. How it is done:
as §1, §2
The results of the measurements summarized in Table 1 indicate that all of the lipooligoureas tested show varying activity against the bacterial strains tested. Lipooligoureas according to the invention show activity against both gram-positive and gram-negative bacterial strains. The results obtained indicate a certain degree of selectivity of the lipooligoureas according to the invention against gram-positive strains of Staphylococcus aureus ATCC 29213 and Staphylococcus epidermidis ATCC 12228, for which by far the highest activity of the tested lipooligoureas was observed, i.e. the lowest values of MIC. This trend is also reflected in the activity against strains of methicillin-resistant Staphylococcus aureus (MRSA).

[13] abbreviates: (−) Salmonella sv. typhimurium TT622, LB medium, 30° C.

Structures are written as SMILES. In brackets after ≈: the same amount, converted by molar mass. Like-named read-outs stand apart in the source and are kept apart here.

Consider `CCCCCCCCCC(=O)N[C@H](CNC(=O)N[C@@H](CCCCN)CNC(=O)N[C@@H](CCCCN)CNC(=O)N[C@H](CNC(=O)N[C@@H](CCCCN)CNC(N)=O)CC(C)C)Cc1ccccc1` [LOU1], for which the MIC result in test [1] was “n.d. (n.d. = not determined, i.e., the MIC value was higher than 50 μg/mL)”; in test [2], “n.d. (n.d. = not determined, i.e., the MIC value was higher than 50 μg/mL)”; in [3] it was “n.d. (n.d. = not determined, i.e., the MIC value was higher than 50 μg/mL)”; in test [4] it was “n.d. (n.d. = not determined, i.e., the MIC value was higher than 50 μg/mL)”; in test [5] (setting [13]), “n.d. (n.d. = not determined, i.e., the MIC value was higher than 50 μg/mL)”; in test [6] it was 30 µg/mL (≈ 31.2 µM). Besides, the MIC is 30 µg/mL (≈ 31.2 µM) in test [7]; “n.d. (n.d. = not determined, i.e., the MIC value was higher than 50 μg/mL)” in [8]; 30 µg/mL (≈ 31.2 µM) in [9]; 30 µg/mL (≈ 31.2 µM) in [10]; 40 µg/mL (≈ 41.6 µM) in [11].

As for `CCCCCCCCCC(=O)N[C@H](CNC(=O)N[C@@H](CCN)CNC(=O)N[C@@H](CCN)CNC(=O)N[C@H](CNC(=O)N[C@H](CNC(N)=O)CC(C)C)CC(C)C)Cc1ccccc1` [LOU2], the MIC in [1] was determined as 20 µg/mL (≈ 22.5 µM); in test [2] it was 30 µg/mL (≈ 33.7 µM); in test [3], 30 µg/mL (≈ 33.7 µM); in test [4] it was 30 µg/mL (≈ 33.7 µM); in [5], 30 µg/mL (≈ 33.7 µM); in test [6], 10 µg/mL (≈ 11.2 µM). For the same compound, the MIC in [7] turned out to be 10 µg/mL (≈ 11.2 µM); in [8], 30 µg/mL (≈ 33.7 µM); in [9] it was 10 µg/mL (≈ 11.2 µM); in test [10], 10 µg/mL (≈ 11.2 µM); in [11], 10 µg/mL (≈ 11.2 µM). Moreover, the “activity against strains of methicillin-resistant Staphylococcus aureus (MRSA)” value in [12] is on record as “particularly high activity”.

In the case of `CCCCCCCCCC(=O)N[C@H](CNC(=O)N[C@@H](CCN)CNC(=O)N[C@H](CNC(=O)N[C@H](CNC(=O)N[C@@H](CCN)CNC(N)=O)CC(C)C)CC(C)C)Cc1ccccc1` [LOU3], the MIC is 5 µg/mL (≈ 5.62 µM) in [1]; 10 µg/mL (≈ 11.2 µM) in test [2]; 20 µg/mL (≈ 22.5 µM) in [3]; 10 µg/mL (≈ 11.2 µM) in [4]; 20 µg/mL (≈ 22.5 µM) in [5]; 5 µg/mL (≈ 5.62 µM) in test [6]. The MIC came to 5 µg/mL (≈ 5.62 µM) in [7]; 10 µg/mL (≈ 11.2 µM) in test [8]; 5 µg/mL (≈ 5.62 µM) in test [9]; 5 µg/mL (≈ 5.62 µM) in [10]; 5 µg/mL (≈ 5.62 µM) in test [11]. The “activity against strains of methicillin-resistant Staphylococcus aureus (MRSA)” value in test [12] was “particularly high activity”.

`CCCCCCCCCC(=O)N[C@H](CNC(=O)N[C@@H](CCN)CNC(=O)N[C@@H](CCN)CNC(=O)N[C@H](CNC(=O)N[C@@H](CCN)CNC(N)=O)CC(C)C)Cc1ccccc1` [LOU4]: the MIC in test [1] is 40 µg/mL (≈ 45.6 µM); in test [2] it was “n.d. (n.d. = not determined, i.e., the MIC value was higher than 50 μg/mL)”; in test [3], “n.d. (n.d. = not determined, i.e., the MIC value was higher than 50 μg/mL)”; in test [4] it was “n.d. (n.d. = not determined, i.e., the MIC value was higher than 50 μg/mL)”; in [5] (setting [13]), “n.d. (n.d. = not determined, i.e., the MIC value was higher than 50 μg/mL)”; in [6], 20 µg/mL (≈ 22.8 µM). Further, the MIC was 20 µg/mL (≈ 22.8 µM) in test [7]; “n.d. (n.d. = not determined, i.e., the MIC value was higher than 50 μg/mL)” in test [8]; 20 µg/mL (≈ 22.8 µM) in test [9]; 30 µg/mL (≈ 34.2 µM) in test [10]; 30 µg/mL (≈ 34.2 µM) in [11].

For orientation: MIC means the lowest concentration that inhibits growth of the organism. A higher MIC goes with weaker potency.
